Experiment [1] can be described thus: microbe, parasite or virus in culture. The following applies: Mycobacterium tuberculosis, 96 h, read-out: pIC50 (converted).
The nature of experiment [2]: microbe, parasite or virus in culture. The following applies: Mycobacterium tuberculosis, 72 h, read-out: pIC50 (converted).

Where only a bound is given, the exact number is not on record here.

For `OCC(O)CSCc1ncc(-c2cccc(Cl)c2)o1` (stereo not drawn), the IC50 in experiment [1] is > 501 µM; in experiment [2], 211 µM.

Take `Cc1cc(S(=O)(=O)NC2CCS(=O)(=O)C2)c(C)s1` (stereo not drawn): the values for the IC50 in experiment [1] and in experiment [2] were 310 µM and 97.4 µM, respectively.

With `CC(C)COCC(O)CNc1nnc(C(C)C)s1` (stereo not drawn), the IC50 in experiment [1] is 86.9 µM; in experiment [2], 111 µM.

Consider `CCc1nnsc1C(=O)N1CCc2sccc2C1`, for which the IC50 in experiment [1] is > 501 µM; in experiment [2], 176 µM.

On to `Cc1cc(Cl)ccc1C(=O)C1CCCN(Cc2cnc(N(C)C)s2)C1` (stereo not drawn), for which the results for the IC50 in experiment [1] and in experiment [2] were 40.8 µM and 45.7 µM, respectively.

On to `Cn1nnnc1SCCOc1cccc(F)c1`, for which the IC50 is 87.9 µM in experiment [1] and 412 µM in experiment [2].

Regarding `CSCc1ccc(C(=O)NCCCNc2ccc(C(F)(F)F)cn2)cc1`, the IC50 in experiment [1] and in experiment [2] was > 50.1 µM throughout.

With `CCCc1nc(C(=O)NCCc2cccnc2)cs1`, the IC50 in experiment [1] is 281 µM; in experiment [2], 277 µM.

In the case of `COCCN(C)CC1CCCN1S(=O)(=O)c1cccc(F)c1F` (stereo not drawn), the IC50 in experiment [1] was > 50.1 µM; in experiment [2] it was 15 µM.

Consider `COCCN1CCC(CNCc2c[nH]nc2C(C)(C)C)CC1`, for which the figures for the IC50 in experiment [1] and in experiment [2] were > 50.1 µM and 39.9 µM, respectively.

`COc1ccnc(CN2CCCC(CCc3ccc(F)cc3)C2)c1OC` (stereo not drawn): the IC50 is 20.9 µM in experiment [1] and 34.7 µM in experiment [2].

For the compound `CCc1nc(NC2CCCN(C(=O)c3cccs3)C2)c2cnn(C)c2n1` (stereo not drawn), the IC50 in experiment [1] and in experiment [2] was > 50.1 µM throughout.

With `CC(C)NCc1nc(-c2ccc3c(c2)OCO3)c[nH]1`, the IC50 in experiment [1] and in experiment [2] was > 50.1 µM in each case.

For the compound `CCNc1nnc(SCc2ncccc2C)s1`, the IC50 was 58 µM in experiment [1] and 96.1 µM in experiment [2].

On to `CC1(C)Oc2ccc(NC(=O)C3CCOC3)cc2O1` (stereo not drawn), for which the values for the IC50 in experiment [1] and in experiment [2] were 261 µM and 289 µM, respectively.

In the case of `CC(CN)CNC(=O)c1ccc(C(F)(F)F)cc1` (stereo not drawn), the IC50 in experiment [1] and in experiment [2] was > 501 µM throughout.

`CCc1ccc(CN2CCOC(Cc3cccc(F)c3)C2)nc1` (stereo not drawn): the IC50 was 12.3 µM in experiment [1] and 36.3 µM in experiment [2].

Regarding `Cc1ccc(S(=O)(=O)N2CCC[C@@H](N)C2)c(C)c1`, the IC50 is 276 µM in experiment [1] and 219 µM in experiment [2].

For `O=C(c1cn(-c2ccccc2)nn1)N1CCOCC(O)C1` (stereo not drawn), the IC50 in experiment [1] and in experiment [2] was > 50.1 µM in each case.

As to `NC(=O)CSc1nc(-c2ccc(Br)cc2)c[nH]1`, the results for the IC50 in experiment [1] and in experiment [2] were 260 µM and 160 µM, respectively.

Turning to `CCCNC(=O)c1ccc2snnc2c1`, the IC50 was 169 µM in experiment [1] and 153 µM in experiment [2].

As for `CCCNC(=O)c1ccc2c(c1)NC(=O)C(C)S2` (stereo not drawn), the figures for the IC50 in experiment [1] and in experiment [2] were > 501 µM and 406 µM, respectively.

Turning to `CCC(C)Oc1cc(C(=O)NCC2(O)CCC2)ccn1` (stereo not drawn), the IC50 was 29.6 µM in experiment [1] and 62.8 µM in experiment [2].

Regarding `NS(=O)(=O)c1ccc(F)c(C(=O)Nc2ccccc2)c1`, the IC50 in experiment [1] is > 501 µM; in experiment [2] it was 262 µM.

As to `Cc1c(C(=O)NCC(N)=O)oc2ccc(Cl)cc12`, the IC50 in experiment [1] was 218 µM; in experiment [2], 102 µM.

With `COc1ccc(OCCSc2n[nH]c(N)n2)cc1`, the IC50 in experiment [1] is 220 µM; in experiment [2] it was 199 µM.

For the compound `CSCc1ccc(C(=O)N2CC(CC(N)=O)C2)cc1`, the IC50 in experiment [1] and in experiment [2] was > 501 µM throughout.

Regarding `Cc1cc(CNc2ccc(C(F)(F)F)cc2)no1`, the IC50 in experiment [1] was 15.6 µM; in experiment [2], 19.8 µM.

Turning to `Brc1ccc2c(c1)OCCNC2`, the IC50 in experiment [1] and in experiment [2] was > 501 µM each time.

In the case of `CC1(NC(=O)CC2CCc3ccccc32)CCOCC1` (stereo not drawn), the IC50 in experiment [1] and in experiment [2] was > 50.1 µM throughout.

As to `CN(Cc1ccco1)CC(O)COCc1cccs1` (stereo not drawn), the IC50 in experiment [1] was 188 µM; in experiment [2], 235 µM.

`NC(=O)CCS(=O)(=O)CCN1CCCCCC1`: the figures for the IC50 in experiment [1] and in experiment [2] were > 501 µM and 158 µM, respectively.

As for `N#Cc1cc(Cl)ccc1N1CCN(C(=O)C2CCC2)CC1`, the IC50 in experiment [1] and in experiment [2] was > 50.1 µM throughout.

Take `CCc1ccc(S(=O)(=O)N2CC[C@@H](N)C2)cc1CC`: the IC50 in experiment [1] and in experiment [2] was > 501 µM each time.

In the case of `O=c1[nH]cnc2cccc(O)c12`, the IC50 in experiment [1] and in experiment [2] was > 501 µM in each case.

For `CNC(=O)c1cccc(NCc2ccc(C#N)s2)n1`, the IC50 is 205 µM in experiment [1] and 180 µM in experiment [2].

For the compound `COCCOCc1cccc(NC(=O)NC(C)C)c1`, the IC50 in experiment [1] and in experiment [2] was > 501 µM throughout.

For `Cc1cc(CN(C)Cc2csc(-c3ccc(C(C)C)cc3)n2)no1`, the results for the IC50 in experiment [1] and in experiment [2] were 37.9 µM and > 50.1 µM, respectively.

Consider `N#CC1(C(=O)NCCCNc2ccc(C(F)(F)F)cn2)CCCC1`, for which the IC50 in experiment [1] was 1.69 µM; in experiment [2], 0.198 µM.

For the compound `CCc1ccccc1CN1C(=O)CCC1=O`, the IC50 in experiment [1] and in experiment [2] was > 501 µM in each case.

For `NCCc1nsc2ccccc12`, the IC50 in experiment [1] is 189 µM; in experiment [2], 129 µM.

For `CC(C)NS(=O)(=O)c1cc(CN)ccc1F`, the IC50 in experiment [1] and in experiment [2] was > 501 µM in each case.

In the case of `CNC(=O)CN(C)C(=O)CCc1ccc(Br)cc1F`, the IC50 in experiment [1] is 166 µM; in experiment [2], 108 µM.

As to `CCS(=O)(=O)N1CCC(c2nnc(CN3CCCCCC3)n2C)CC1`, the IC50 in experiment [1] and in experiment [2] was > 50.1 µM throughout.

As for `C=C(C)CSc1nnc(CCNC(=O)OC(C)(C)C)o1`, the results for the IC50 in experiment [1] and in experiment [2] were 5.84 µM and 40.4 µM, respectively.

With `Cc1cc(Br)cc(C(=O)NCc2nccc(N)n2)c1`, the IC50 in experiment [1] and in experiment [2] was > 501 µM throughout.

Consider `O=S(=O)(NCCNc1ccc(-n2cccn2)nn1)c1ccccc1`, for which the IC50 was 15.9 µM in experiment [1] and 24.9 µM in experiment [2].

Turning to `Cc1n[nH]cc1CNCC(c1ccsc1)N(C)C` (stereo not drawn), the IC50 in experiment [1] and in experiment [2] was > 50.1 µM throughout.

In the case of `CCOc1ccc(N2CCCN=C2NC(=O)c2ccc(Cl)cc2)cc1`, the IC50 in experiment [1] and in experiment [2] was > 50.1 µM each time.

As for `O=C(NCc1cccs1)c1cnccn1`, the results for the IC50 in experiment [1] and in experiment [2] were 80.5 µM and 33.9 µM, respectively.

Turning to `CC(C)NC(=O)Nc1cccc(S(=O)(=O)C(F)F)c1`, the IC50 in experiment [1] is 219 µM; in experiment [2], 264 µM.

`CCC(C)c1cc(C(=O)Nc2ncccc2O)on1` (stereo not drawn): the IC50 in experiment [1] is 268 µM; in experiment [2], 178 µM.

Consider `COC(=O)COc1ccc2c(c1)OCO2`, for which the IC50 in experiment [1] was > 501 µM; in experiment [2], 140 µM.

`CN(C)S(=O)(=O)N1CCCC1COc1ccccc1` (stereo not drawn): the IC50 in experiment [1] was 271 µM; in experiment [2] it was 360 µM.

`Nc1nc(-c2c(F)cccc2F)co1`: the IC50 in experiment [1] and in experiment [2] was > 501 µM throughout.

`CN(C)c1nc(-c2ccc3c(c2)CCC(=O)N3)cs1`: the IC50 in experiment [1] was 201 µM; in experiment [2] it was 120 µM.

As for `CC(C)N(C)S(=O)(=O)NCCCN(C)c1ccccc1`, the IC50 in experiment [1] was 216 µM; in experiment [2], 193 µM.

For `Cc1onc(N)c1S(=O)(=O)NCc1ccccc1Cl`, the IC50 in experiment [1] is > 501 µM; in experiment [2] it was 156 µM.

Regarding `Cc1cccc(-c2nnc(C(C)N3CCn4c(C)nnc4C3)o2)c1` (stereo not drawn), the IC50 in experiment [1] and in experiment [2] was > 50.1 µM in each case.

The values are drawn from ChEMBL document CHEMBL3988442, “University of Dundee, Small-Polar-MMV Screening Library” (2021).
